Read-outs that look alike come from different tables or passages of the source.
Legend:
hHDAC6 = hHDAC6 (Homo sapiens (Human), UniProt Q9UBN7); assay: HDAC6 inhibition protocol; conditions: read-out: IC50 (nM) of enzyme activity HDAC6
Experimental: (§1) After enzymatic reactions, reaction was stopped by adding 5 μl of 10 μM solution of a known inhibitor. The fluorescent signal of substrate and product was measured by means of microfluidics mobility assay in a EZ Reader II equipment. The percentage of conversion of substrate into product was calculated by the equipment software based on the area of the peaks.
(§2) The percentage of conversion data were analyzed using the computer software, Graphpad Prism. In the absence of the compound, the conversion (Ct) in each data set was defined as 100% activity. In the absence of HDAC, the conversion (Cb) in each data set was defined as 0% activity. The percent activity in the presence of each compound was calculated according to the following equation: % inhibition=(Ct−C)/(Ct−Cb), where C=the percentage of conversion in the presence of the compound.
(§3) The values of % inhibition versus a series of compound concentrations were then plotted using non-linear regression analysis of Sigmoidal dose-response curve generated with the equation Y=B+(T−B)/1+10((Log EC50−X)×Hill Slope), where Y=percent inhibition, B=minimum percent inhibition, T=maximum percent inhibition, X=logarithm of compound and Hill Slope=slope factor or Hill coefficient. The IC50 value was determined by the concentration causing a half-maximal percent activity.
The buffer assay used in the inhibition hHDAC6 assay is: Hepes 50 mM, KCl 100 mM, Tween 20 0.001%, BSA 0.01%; pH=7.4.

hHDAC1 = hHDAC1 (Homo sapiens (Human), UniProt Q13547); assay: hHDAC1 inhibition protocol; conditions: read-out: IC50 (nM) of enzyme activity HDAC1; selectivity table
Experimental: as §1, §2, §3
The buffer assay used in the inhibition hHDAC1 assay is: Hepes 50 mM, KCl 100 mM, Tween 20 0.001%, BSA 0.01%; pH=7.4.

hHDAC2 = hHDAC2 (Homo sapiens (Human), UniProt Q92769); assay: hHDAC2 inhibition protocol; conditions: read-out: IC50 (nM) of enzyme activity HDAC2; selectivity table
Sequence of hHDAC2 (Q92769 whole entry): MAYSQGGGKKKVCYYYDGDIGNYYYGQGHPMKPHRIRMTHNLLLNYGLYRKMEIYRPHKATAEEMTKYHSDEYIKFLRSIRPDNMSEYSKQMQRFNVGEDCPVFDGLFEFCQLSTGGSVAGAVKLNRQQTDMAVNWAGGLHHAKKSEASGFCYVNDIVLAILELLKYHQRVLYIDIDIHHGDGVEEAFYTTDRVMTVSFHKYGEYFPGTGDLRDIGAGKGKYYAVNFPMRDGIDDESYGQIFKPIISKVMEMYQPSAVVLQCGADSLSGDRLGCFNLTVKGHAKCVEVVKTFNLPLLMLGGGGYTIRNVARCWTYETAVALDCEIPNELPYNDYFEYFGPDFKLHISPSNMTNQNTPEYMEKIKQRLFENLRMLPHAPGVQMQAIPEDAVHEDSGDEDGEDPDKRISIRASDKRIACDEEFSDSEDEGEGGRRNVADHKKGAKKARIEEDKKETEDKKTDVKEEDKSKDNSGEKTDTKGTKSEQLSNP
Experimental: as §1, §2, §3
The buffer assay used in the inhibition hHDAC2 assay is: Hepes 50 mM, KCl 100 mM, Tween 20 0.001%, BSA 0.01%; pH=7.4.

hHDAC3 = hHDAC3 (Homo sapiens (Human), UniProt O15379); assay: hHDAC3 inhibition protocol; conditions: read-out: IC50 (nM) of enzyme activity HDAC3; selectivity table
Sequence of hHDAC3 (O15379 whole entry): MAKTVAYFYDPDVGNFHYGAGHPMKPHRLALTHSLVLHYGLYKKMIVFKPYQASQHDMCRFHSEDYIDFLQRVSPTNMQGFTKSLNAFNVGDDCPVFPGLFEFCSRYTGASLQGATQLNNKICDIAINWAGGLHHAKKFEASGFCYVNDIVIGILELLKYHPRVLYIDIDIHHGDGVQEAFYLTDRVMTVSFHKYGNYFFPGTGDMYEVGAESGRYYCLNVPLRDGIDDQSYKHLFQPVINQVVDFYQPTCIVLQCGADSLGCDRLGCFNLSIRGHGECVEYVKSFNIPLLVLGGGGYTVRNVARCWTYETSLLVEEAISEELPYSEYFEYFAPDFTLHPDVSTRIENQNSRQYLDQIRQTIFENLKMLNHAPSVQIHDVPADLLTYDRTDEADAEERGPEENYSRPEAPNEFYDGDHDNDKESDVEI
Sequence of hHDAC3 (Q9Y618 395-489 partner): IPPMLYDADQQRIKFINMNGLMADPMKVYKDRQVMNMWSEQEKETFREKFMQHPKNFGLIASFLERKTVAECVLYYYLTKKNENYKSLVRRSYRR
Experimental: as §1, §2, §3
The buffer assay used in the inhibition hHDAC3 assay is: Hepes 50 mM, KCl 100 mM, Tween 20 0.001%, BSA 0.01%; pH=7.4.

hHDAC4 = hHDAC4 (Homo sapiens (Human), UniProt P56524); assay: hHDAC4 inhibition protocol; conditions: read-out: IC50 (nM) of enzyme activity HDAC4; selectivity table
Experimental: as §1, §2, §3
The buffer assay used in the inhibition hHDAC4 assay is: Hepes 50 mM, KCl 100 mM, Tween 20 0.001%, BSA 0.01%; pH=7.4.

hHDAC5 = hHDAC5 (Homo sapiens (Human), UniProt Q9UQL6); assay: hHDAC5 inhibition protocol; conditions: read-out: IC50 (nM) of enzyme activity HDAC5; selectivity table
Sequence of hHDAC5 (Q9UQL6 whole entry): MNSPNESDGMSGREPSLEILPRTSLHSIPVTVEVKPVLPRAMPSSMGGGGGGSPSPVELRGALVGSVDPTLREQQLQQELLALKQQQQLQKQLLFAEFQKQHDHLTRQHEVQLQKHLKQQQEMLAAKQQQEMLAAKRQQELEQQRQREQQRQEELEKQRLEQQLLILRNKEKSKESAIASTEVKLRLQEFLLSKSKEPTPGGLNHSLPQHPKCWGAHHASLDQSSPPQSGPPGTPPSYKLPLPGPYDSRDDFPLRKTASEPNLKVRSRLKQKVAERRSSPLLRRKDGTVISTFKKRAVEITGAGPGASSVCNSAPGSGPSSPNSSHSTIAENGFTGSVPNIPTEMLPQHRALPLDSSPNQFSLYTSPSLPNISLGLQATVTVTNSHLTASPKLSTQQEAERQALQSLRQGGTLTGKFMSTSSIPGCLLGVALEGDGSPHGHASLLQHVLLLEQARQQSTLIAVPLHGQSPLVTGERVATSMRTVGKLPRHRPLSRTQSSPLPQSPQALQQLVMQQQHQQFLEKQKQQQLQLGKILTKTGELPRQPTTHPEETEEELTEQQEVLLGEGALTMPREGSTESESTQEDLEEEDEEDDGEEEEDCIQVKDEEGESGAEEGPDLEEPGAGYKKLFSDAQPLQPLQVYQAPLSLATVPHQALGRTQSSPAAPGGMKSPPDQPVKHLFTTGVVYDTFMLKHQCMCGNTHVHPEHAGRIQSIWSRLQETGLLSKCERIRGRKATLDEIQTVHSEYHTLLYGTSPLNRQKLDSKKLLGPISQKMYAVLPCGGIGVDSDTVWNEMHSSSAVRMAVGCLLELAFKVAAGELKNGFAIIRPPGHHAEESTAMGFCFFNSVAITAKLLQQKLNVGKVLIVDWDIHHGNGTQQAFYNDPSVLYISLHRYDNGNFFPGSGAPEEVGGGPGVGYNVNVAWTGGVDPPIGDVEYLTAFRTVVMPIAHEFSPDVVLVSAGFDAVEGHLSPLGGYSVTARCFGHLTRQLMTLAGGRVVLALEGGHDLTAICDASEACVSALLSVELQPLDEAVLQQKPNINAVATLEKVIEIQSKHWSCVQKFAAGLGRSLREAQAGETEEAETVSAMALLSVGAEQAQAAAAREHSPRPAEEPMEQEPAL
Experimental: as §1, §2, §3
The buffer assay used in the inhibition hHDAC5 assay is: Hepes 50 mM, KCl 100 mM, Tween 20 0.001%, BSA 0.01%; pH=7.4.

hHDAC7 = hHDAC7 (Homo sapiens (Human), UniProt Q8WUI4); assay: hHDAC7 inhibition protocol; conditions: read-out: IC50 (nM) of enzyme activity HDAC7; selectivity table
Experimental: The fluorescent signal of substrate and product was measured by means of microfluidics mobility assay in a EZ Reader II equipment. The percentage of conversion of substrate into product was calculated by the equipment software based on the area of the peaks.
as §2, §3
The buffer assay used in the inhibition hHDAC7 assay is: Hepes 50 mM, KCl 100 mM, Tween 20 0.001%, BSA 0.01%; pH=7.4.

hHDAC8 = hHDAC8 (Homo sapiens (Human), UniProt Q9BY41); assay: hHDAC8 inhibition protocol; conditions: read-out: IC50 (nM) of enzyme activity HDAC8; selectivity table
Sequence of hHDAC8 (Q9BY41 whole entry): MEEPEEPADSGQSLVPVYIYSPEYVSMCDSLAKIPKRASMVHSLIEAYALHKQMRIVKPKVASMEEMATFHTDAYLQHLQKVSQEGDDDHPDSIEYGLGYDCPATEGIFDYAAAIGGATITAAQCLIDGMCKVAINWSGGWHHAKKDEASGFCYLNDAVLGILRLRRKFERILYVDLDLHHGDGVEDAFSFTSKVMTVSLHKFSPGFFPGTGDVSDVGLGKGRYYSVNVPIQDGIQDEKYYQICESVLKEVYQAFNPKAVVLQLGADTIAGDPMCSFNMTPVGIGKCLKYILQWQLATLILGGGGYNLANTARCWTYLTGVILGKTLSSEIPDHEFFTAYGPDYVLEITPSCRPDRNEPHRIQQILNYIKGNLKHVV
Experimental: as §1, §2, §3
The buffer assay used in the inhibition hHDAC8 assay is: Hepes 50 mM, KCl 100 mM, Tween 20 0.001%, BSA 0.01%; pH=7.4.

hHDAC9 = hHDAC9 (Homo sapiens (Human), UniProt Q9UKV0); assay: hHDAC9 inhibition protocol; conditions: read-out: IC50 (nM) of enzyme activity HDAC9; selectivity table
Sequence of hHDAC9 (Q9UKV0 whole entry): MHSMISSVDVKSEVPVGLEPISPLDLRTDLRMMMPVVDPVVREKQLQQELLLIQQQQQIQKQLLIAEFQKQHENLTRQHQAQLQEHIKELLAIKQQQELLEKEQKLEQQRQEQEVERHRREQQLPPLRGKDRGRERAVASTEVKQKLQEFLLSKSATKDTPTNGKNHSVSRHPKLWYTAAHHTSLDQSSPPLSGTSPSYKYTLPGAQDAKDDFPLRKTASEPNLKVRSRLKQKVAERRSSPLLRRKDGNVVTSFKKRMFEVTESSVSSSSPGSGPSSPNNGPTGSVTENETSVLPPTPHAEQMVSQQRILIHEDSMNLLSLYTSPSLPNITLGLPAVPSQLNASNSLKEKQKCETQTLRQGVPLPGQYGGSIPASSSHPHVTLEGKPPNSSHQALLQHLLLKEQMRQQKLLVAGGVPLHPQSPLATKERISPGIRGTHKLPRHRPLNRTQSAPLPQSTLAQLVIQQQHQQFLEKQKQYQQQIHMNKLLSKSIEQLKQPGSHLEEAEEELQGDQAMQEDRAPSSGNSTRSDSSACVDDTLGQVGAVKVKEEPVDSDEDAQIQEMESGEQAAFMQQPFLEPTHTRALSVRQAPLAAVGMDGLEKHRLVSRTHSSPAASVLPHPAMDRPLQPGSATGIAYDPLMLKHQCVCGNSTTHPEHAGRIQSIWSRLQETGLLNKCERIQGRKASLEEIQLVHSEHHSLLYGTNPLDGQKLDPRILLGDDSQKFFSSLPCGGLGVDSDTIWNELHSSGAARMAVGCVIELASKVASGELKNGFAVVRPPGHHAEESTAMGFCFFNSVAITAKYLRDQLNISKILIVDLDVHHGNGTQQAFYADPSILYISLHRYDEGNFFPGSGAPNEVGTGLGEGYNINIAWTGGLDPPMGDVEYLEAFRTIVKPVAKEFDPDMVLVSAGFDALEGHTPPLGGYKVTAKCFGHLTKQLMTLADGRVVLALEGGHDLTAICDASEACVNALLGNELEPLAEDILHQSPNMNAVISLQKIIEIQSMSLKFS
Experimental: as §1, §2, §3
The buffer assay used in the inhibition hHDAC9 assay is: Hepes 50 mM, KCl 100 mM, Tween 20 0.001%, BSA 0.01%; pH=7.4.

hHDAC10 = hHDAC10 (Homo sapiens (Human), UniProt Q969S8); assay: HDAC10 inhibition protocol; conditions: read-out: IC50 (nM) of enzyme activity HDAC10; selectivity table
Experimental: as §1, §2, §3
The buffer assay used in the inhibition hHDAC10 assay is: Hepes 50 mM, KCl 100 mM, Tween 20 0.001%, BSA 0.01%; pH=7.4.

[1] = hHDAC6 1.20 nM, Acetylated Peptide A 2 μM, 1 hour at RT

Sequence of hHDAC6 (Q9UBN7 whole entry): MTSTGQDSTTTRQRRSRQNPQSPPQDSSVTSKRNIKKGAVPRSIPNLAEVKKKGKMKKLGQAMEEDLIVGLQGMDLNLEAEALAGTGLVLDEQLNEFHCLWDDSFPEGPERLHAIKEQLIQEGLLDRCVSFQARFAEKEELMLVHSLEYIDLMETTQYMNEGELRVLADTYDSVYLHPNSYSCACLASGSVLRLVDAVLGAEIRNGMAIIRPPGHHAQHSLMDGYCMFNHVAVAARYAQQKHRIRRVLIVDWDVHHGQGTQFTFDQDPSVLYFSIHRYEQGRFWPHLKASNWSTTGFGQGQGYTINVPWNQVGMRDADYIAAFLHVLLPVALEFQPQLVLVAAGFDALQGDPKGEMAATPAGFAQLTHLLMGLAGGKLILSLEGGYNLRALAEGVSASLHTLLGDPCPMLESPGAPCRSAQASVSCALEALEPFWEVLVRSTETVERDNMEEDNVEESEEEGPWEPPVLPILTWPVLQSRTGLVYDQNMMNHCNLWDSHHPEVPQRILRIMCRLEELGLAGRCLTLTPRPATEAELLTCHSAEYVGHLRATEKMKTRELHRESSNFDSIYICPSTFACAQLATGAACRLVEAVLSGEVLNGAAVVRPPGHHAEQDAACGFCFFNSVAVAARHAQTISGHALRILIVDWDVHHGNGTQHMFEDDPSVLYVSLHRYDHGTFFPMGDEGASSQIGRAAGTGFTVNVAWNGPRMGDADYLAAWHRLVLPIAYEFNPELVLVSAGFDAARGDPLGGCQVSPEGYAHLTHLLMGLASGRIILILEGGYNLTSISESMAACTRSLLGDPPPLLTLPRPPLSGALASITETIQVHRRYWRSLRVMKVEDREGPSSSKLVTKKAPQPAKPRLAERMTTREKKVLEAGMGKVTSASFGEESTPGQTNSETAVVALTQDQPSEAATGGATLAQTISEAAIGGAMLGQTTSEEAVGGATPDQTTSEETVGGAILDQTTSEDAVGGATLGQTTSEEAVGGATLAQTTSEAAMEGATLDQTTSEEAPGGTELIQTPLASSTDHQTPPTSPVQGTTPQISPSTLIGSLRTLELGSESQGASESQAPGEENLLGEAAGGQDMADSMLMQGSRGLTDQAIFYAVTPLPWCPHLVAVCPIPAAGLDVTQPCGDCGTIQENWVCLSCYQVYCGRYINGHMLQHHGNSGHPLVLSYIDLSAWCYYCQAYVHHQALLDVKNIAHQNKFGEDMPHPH

`FC(F)c1nnc(-c2ccc(Cn3cnc4cc(Cl)c(Cl)cc43)nc2)o1` [Example 22, 2-(6-((5,6-dichloro-1H-benzo[d]imidazol-1-yl)methyl)pyridin-3-yl)-5-(difluoromethyl)-1,3,4-oxadiazole] was tested, and the IC50 (hHDAC6; [1]) was 22.4 nM, the IC50 (hHDAC6; selectivity table) was 22.4 nM and the IC50 (hHDAC1) was greater than 10000 nM. It also gave an IC50 (hHDAC2) greater than 10000 nM, an IC50 (hHDAC3) greater than 10000 nM and an IC50 (hHDAC4) of 2400 nM. The IC50 (hHDAC5) was greater than 10000 nM, the IC50 (hHDAC7) was 9400 nM and the IC50 (hHDAC8) was greater than 10000 nM. It also gave an IC50 (hHDAC9) of 6520 nM and an IC50 (hHDAC10) greater than 10000 nM.

`FC(F)c1nnc(-c2ccc(Cn3nnc(-c4cccc(Cl)c4)c3Cl)nc2)o1` [Example 54, 2-(6-((5-chloro-4-(3-chlorophenyl)-1H-1,2,3-triazol-1-yl)methyl)pyridin-3-yl)-5-(difluoromethyl)-1,3,4-oxadiazole] was tested, and the IC50 (hHDAC6; [1]) was 34.1 nM, the IC50 (hHDAC6; selectivity table) was 34.1 nM and the IC50 (hHDAC1) was greater than 10000 nM. The IC50 (hHDAC2) was greater than 10000 nM, the IC50 (hHDAC3) was greater than 10000 nM and the IC50 (hHDAC4) was 1490 nM. For the same compound, the IC50 (hHDAC5) was greater than 10000 nM, the IC50 (hHDAC7) was 1400 nM and the IC50 (hHDAC8) was greater than 10000 nM. For the same compound, the IC50 (hHDAC9) was 2610 nM and the IC50 (hHDAC10) was greater than 10000 nM.

`Fc1ccccc1-c1cn(Cc2ccc(-c3nnc(C(F)F)o3)cn2)nn1` [Example 48, 2-(difluoromethyl)-5-(6-((4-(2-fluorophenyl)-1H-1,2,3-triazol-1-yl)methyl)pyridin-3-yl)-1,3,4-oxadiazole] was tested, and the IC50 (hHDAC6; [1]) was 24 nM, the IC50 (hHDAC6; selectivity table) was 24 nM and the IC50 (hHDAC1) was greater than 10000 nM. The IC50 (hHDAC2) was greater than 10000 nM, the IC50 (hHDAC3) was greater than 10000 nM and the IC50 (hHDAC4) was greater than 10000 nM. The IC50 (hHDAC5) was greater than 10000 nM, the IC50 (hHDAC7) was greater than 10000 nM and the IC50 (hHDAC8) was greater than 10000 nM. For the same compound, the IC50 (hHDAC9) was greater than 10000 nM and the IC50 (hHDAC10) was greater than 10000 nM.

For `FC(F)c1nnc(-c2ccc(Cn3nc4cc(Cl)c(Cl)cc4n3)nc2)o1` [Example 25, 2-(6-((5,6-dichloro-2H-benzo[d][1,2,3]triazol-2-yl)methyl)pyridin-3-yl)-5-(difluoromethyl)-1,3,4-oxadiazole], the IC50 (hHDAC6; [1]) was 29.8 nM, the IC50 (hHDAC6; selectivity table) was 29.8 nM and the IC50 (hHDAC1) was greater than 10000 nM. For the same compound, the IC50 (hHDAC2) was greater than 10000 nM, the IC50 (hHDAC3) was greater than 10000 nM and the IC50 (hHDAC4) was greater than 10000 nM. The IC50 (hHDAC5) was greater than 10000 nM, the IC50 (hHDAC7) was greater than 10000 nM and the IC50 (hHDAC8) was greater than 10000 nM. It also gave an IC50 (hHDAC9) greater than 10000 nM and an IC50 (hHDAC10) greater than 10000 nM.

`FC(F)c1nnc(-c2ccc(Cn3nnc4cc(Cl)c(Cl)cc43)nc2)o1` [Example 24, 2-(6-((5,6-dichloro-1H-benzo[d][1,2,3]triazol-1-yl)methyl)pyridin-3-yl)-5-(difluoromethyl)-1,3,4-oxadiazole] gave an IC50 (hHDAC6; [1]) of 29.5 nM, an IC50 (hHDAC6; selectivity table) of 29.5 nM and an IC50 (hHDAC1) greater than 10000 nM. The IC50 (hHDAC2) was greater than 10000 nM, the IC50 (hHDAC3) was greater than 10000 nM and the IC50 (hHDAC4) was 8370 nM. It also gave an IC50 (hHDAC5) greater than 10000 nM, an IC50 (hHDAC7) greater than 10000 nM and an IC50 (hHDAC8) greater than 10000 nM. The IC50 (hHDAC9) was 8620 nM and the IC50 (hHDAC10) was greater than 10000 nM.

`FC(F)c1nnc(-c2ccc(Cn3cc4ccccc4n3)cc2)o1` [Example 7, 2-(4-((2H-indazol-2-yl)methyl)phenyl)-5-(difluoromethyl)-1,3,4-oxadiazole] showed an IC50 (hHDAC6; [1]) of 365 nM, an IC50 (hHDAC6; selectivity table) of 365 nM and an IC50 (hHDAC1) greater than 10000 nM. For the same compound, the IC50 (hHDAC2) was greater than 10000 nM, the IC50 (hHDAC3) was greater than 10000 nM and the IC50 (hHDAC4) was greater than 10000 nM. The IC50 (hHDAC5) was greater than 10000 nM, the IC50 (hHDAC7) was greater than 10000 nM and the IC50 (hHDAC8) was greater than 10000 nM. It also gave an IC50 (hHDAC9) greater than 10000 nM and an IC50 (hHDAC10) greater than 10000 nM.

With `FC(F)c1nnc(-c2ccc(Cn3nnc4ccccc43)cc2)o1` [Example 11, 2-(4-((1H-benzo[d][1,2,3]triazol-1-yl)methyl)phenyl)-5-(difluoromethyl)-1,3,4-oxadiazole] the IC50 (hHDAC6; [1]) was 171 nM, the IC50 (hHDAC6; selectivity table) was 171 nM and the IC50 (hHDAC1) was greater than 10000 nM. It also gave an IC50 (hHDAC2) greater than 10000 nM, an IC50 (hHDAC3) greater than 10000 nM and an IC50 (hHDAC4) greater than 10000 nM. It also gave an IC50 (hHDAC5) greater than 10000 nM, an IC50 (hHDAC7) greater than 10000 nM and an IC50 (hHDAC8) greater than 10000 nM. It also gave an IC50 (hHDAC9) greater than 10000 nM and an IC50 (hHDAC10) greater than 10000 nM.

In the case of `FC(F)c1nnc(-c2ccc(Cn3cc(-c4ccccc4)nn3)cc2)o1` [Example 27, 2-(difluoromethyl)-5-(4-((4-phenyl-1H-1,2,3-triazol-1-yl)methyl)phenyl)-1,3,4-oxadiazole], the IC50 (hHDAC6; [1]) is reported as 85.3 nM, the IC50 (hHDAC6; selectivity table) is reported as 85.3 nM and the IC50 (hHDAC1) is reported as greater than 10000 nM. The IC50 (hHDAC2) was greater than 10000 nM, the IC50 (hHDAC3) was greater than 10000 nM and the IC50 (hHDAC4) was greater than 10000 nM. The IC50 (hHDAC5) was greater than 10000 nM, the IC50 (hHDAC7) was greater than 10000 nM and the IC50 (hHDAC8) was greater than 10000 nM. For the same compound, the IC50 (hHDAC9) was greater than 10000 nM and the IC50 (hHDAC10) was greater than 10000 nM.

Compound `CC1(C)C(=O)N(Cc2ccc(-c3nnc(C(F)F)o3)cc2)c2ccccc21` [Example 15, 1-(4-(5-(difluoromethyl)-1,3,4-oxadiazol-2-yl)benzyl)-3,3-dimethylindolin-2-one] has an IC50 (hHDAC6; [1]) of 214 nM.

Compound `O=C(c1cn(Cc2ccc(-c3nnc(C(F)F)o3)cc2)c2ccccc12)C(F)F` [Example 5, 1-(1-(4-(5-(difluoromethyl)-1,3,4-oxadiazol-2-yl)benzyl)-1H-indol-3-yl)-2,2-difluoroethanone] has an IC50 (hHDAC6; [1]) of 239 nM.
